Test results published in PMC2670776 (Hepatology (Baltimore, Md.), 2009).
Where a SMILES comes first, the peptide text is derived from it. The star is where a group is joined. Cbz = O=C(OCc1ccccc1)*

Key:
SIINFEKL-H2Kb complex [1] = assay: Presentation of SIINFEKL-H2Kb complex on primary hepatocytes
SIINFEKL-H2Kb complex [2] = assay: Presentation of […]-H2Kb complex on HepB5 cells; format: cell-based, mouse; conditions: for SIINFEKL-H2Kb presentation compared with controls: IFNγ-pretreated HepB5 cells, 1 hr
proteasome [3] = assay: Proteasome activity in primary hepatocytes
proteasome [4] = assay: Hydrolysis of […]-TE by cytosolic fractions of HepB5 cells; format: biochemical, mouse
proteasome [5] = assay: Proteasome chymotrypsin-like; format: cell-based, mouse; conditions: HepB5 cells, 48 hr
HepB5 cells = assay: Acetaldehyde level in medium by head space gas chromatography; format: cell-based, mouse; conditions: HepB5 cells incubated with ethanol and DAS, 20 μM; culture medium
ADH = ADH (Mus musculus, UniProt P00329); conditions: HepB5 cells exposed to ethanol for 48 hr; total cell lysates
ADH, sequence (P00329 whole entry): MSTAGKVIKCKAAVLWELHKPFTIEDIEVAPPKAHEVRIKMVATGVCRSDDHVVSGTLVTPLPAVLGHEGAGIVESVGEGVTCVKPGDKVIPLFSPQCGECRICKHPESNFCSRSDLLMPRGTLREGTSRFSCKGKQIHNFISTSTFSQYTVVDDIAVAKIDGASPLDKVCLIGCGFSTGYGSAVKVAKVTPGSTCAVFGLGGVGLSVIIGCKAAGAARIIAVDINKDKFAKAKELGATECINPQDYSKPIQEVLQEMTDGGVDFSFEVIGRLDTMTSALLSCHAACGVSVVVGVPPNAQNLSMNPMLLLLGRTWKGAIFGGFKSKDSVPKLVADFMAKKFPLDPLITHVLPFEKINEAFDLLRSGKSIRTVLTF

PA28 = conditions: HepB5 cells, IFNγ 10 ng/ml and ethanol 50 mM, 48 hr; normalized to β-actin
LMP2 = conditions: HepB5 cells, IFNγ 10 ng/ml and ethanol 50 mM, 48 hr; normalized to β-actin
STAT1 [6] = conditions: HepB5 cells, ethanol 48 hr then IFNγ 1 hr; nuclear extracts; 3 experiments
STAT1 [7] = conditions: HepB5 cells, ethanol treatment then IFNγ; data not shown
H2Kb = H2Kb expression on HepB5 cells; format: cell-based, mouse; conditions: HepB5 cells after 24-hr IFNγ exposure; flow cytometric analysis
[8] = 50 mM ethanol 18 hr, without IFNγ

With `Cc1cn[nH]c1` [4MP, 4-methylpyrazole, reference compound] the “Ethanol-elicited reduction in SIINFEKL-H2Kb presentation” value (SIINFEKL-H2Kb complex [1]; 50 mM ethanol + 4MP 2 mM) was “partially prevented”, the “Suppressive effects of ethanol on SIINFEKL-H2Kb presentation” value (SIINFEKL-H2Kb complex [2]; IFNγ-treated HepB5 cells, 50 mM ethanol with 4 MP in culture medium) was “blocked” and the “Ethanol-elicited reduction in proteasome activity” value (proteasome [3]; 50 mM ethanol + 4MP 2 mM) was “partially prevented”. For the same molecule, the “Inhibitory effect of ethanol on peptide cleavage after ethanol and 4MP” value (proteasome [4]; cytosols of HepB5 cells incubated with 50 mM ethanol and 4MP 2 mM) was “partially reversed” and the “Cht-L proteasome activity, cells incubated with ethanol and 4MP” value (proteasome [5]; 50 mM ethanol + 4MP 2 mM) was “unaffected”.
In the case of `C=CCSCC=C` [DAS, diallyl sulfide], the “Ach (acetaldehyde) levels” value (HepB5 cells) is reported as “suppressed”.
With `CC(C)C[C@@H](C=O)NC(=O)[C@H](CC(C)C)NC(=O)[C@H](CC(C)C)NC(=O)OCc1ccccc1` [MG132] (Cbz-Leu-Leu-Leu-aldehyde) the “SIINFEKL-H2Kb presentation compared with controls” value (SIINFEKL-H2Kb complex [2]; MG132 20 μM) was “suppressed” and the SIINFEKL-TE hydrolysis (proteasome [4]; cytosols of HepB5 cells with MG132) was “completely blocked”.
`C[C@H]1CCC/C=C/[C@@H]2C[C@H](O)C[C@H]2[C@H](O)/C=C/C(=O)O1` [brefeldin A] was tested, and the “SIINFEKL-H2Kb presentation compared with controls” value (SIINFEKL-H2Kb complex [2]; brefeldin A 5 μg/ml) was “suppressed”.
For `CCO` [ethanol], the ADH activity (ADH) was “unchanged”, the “Presentation of SIINFEKL-H2Kb complexes” value (SIINFEKL-H2Kb complex [1]; [8]) was “decreased” and the “Antigen presentation in IFNγ-pretreated hepatocytes” value (SIINFEKL-H2Kb complex [1]; IFNγ 10 ng/ml, 50 mM ethanol) was “down-regulated”. For the same molecule, the “Induction of 20S proteasome activator PA28 expression by IFNγ” value (PA28) was “prevented the induction”, the Proteasome activity (proteasome [3]; [8]) was “decreased” and the “Proteasome function in IFNγ-pretreated hepatocytes” value (proteasome [3]; IFNγ 10 ng/ml, 50 mM ethanol) was “down-regulated”. For the same molecule, the “Induction of immunoproteasome subunit LMP2 by IFNγ” value (LMP2) was “prevented the induction”, the “STAT1 attachment to DNA” value (STAT1 [6]) was “suppressed” and the STAT1 phosphorylation (STAT1 [7]) was “no changes”. The “Peptide hydrolysis in IFNγ-treated cells” value (proteasome [4]; cytosols of IFNγ-treated HepB5 cells exposed to 50 mM ethanol) was “suppressed”, the “Effect on IFNγ induction of proteasome activity” value (proteasome [5]; 50 mM ethanol + IFNγ 10 ng/ml) was “blocked this induction” and the “Cht-L proteasome activity reduced by” value (proteasome [5]; ethanol 50 mM, 3 experiments) was 40%.
`COC1=C2C[C@@H](C)C[C@H](OC)[C@H](O)[C@@H](C)/C=C(\C)[C@H](OC(N)=O)[C@@H](OC)/C=C\C=C(/C)C(=O)NC(=CC1=O)C2=O` [geldanamycin] was tested, and the “SIINFEKL-H2Kb presentation compared with controls” value (SIINFEKL-H2Kb complex [2]; geldanamycin 5 μM) was “suppressed”.
In the case of “IFNγ: recombinant interferon gamma, used at 10 ng/ml”, the H2Kb positive cells (H2Kb) is reported as “about 90%” and the “Effect on proteasome activity” value (proteasome [5]; IFNγ 10 ng/ml) is reported as “induced proteasome activity”.
catalase was tested, and the SIINFEKL-H2Kb presentation restored (SIINFEKL-H2Kb complex [2]; IFNγ-treated HepB5 cells, co-treatment with ethanol and catalase) was “up to 80%”.
